Test results taken from paper PMC2132544 (The Journal of Cell Biology, 1997).
Read-outs that look alike come from different tables or passages of the source.

What was measured:
[1] = tested on: Shigella flexneri intracellular motility in PtK2 cells; conditions: cited from earlier work
[2] = tested on: Shigella flexneri intracellular motility in PtK2 cells; assay type: cell-based
[3] = microinjected peptide, ref Zeile et al. (1996)

FEFPPPPTDE [ActA ABM-1 peptide]
effect on Shigella motility [1, 3]: arrested intracellular Shigella motility

poly- L-proline [poly-L-proline]
effect on Shigella motility ([1]; poly-L-proline intracellular concentration 1 μM, ref Zeile et al., 1996): failed to inhibit motility

Gly-Pro-Pro-Pro-Pro Pro [ABM-2 peptide]
effect on Shigella motility [1, 3]: blocks Shigella actin-based motility

B1: full-length vinculin: Full-length 120-kD human platelet vinculin (protein, UniProt P18206 1-1134, looked up)
Vinculin: MPVFHTRTIESILEPVAQQISHLVIMHEEGEVDGKAIPDLTAPVAAVQAAVSNLVRVGKETVQTTEDQILKRDMPPAFIKVENACTKLVQAAQMLQSDPYSVPARDYLIDGSRGILSGTSDLLLTFDEAEVRKIIRVCKGILEYLTVAEVVETMEDLVTYTKNLGPGMTKMAKMIDERQQELTHQEHRVMLVNSMNTVKELLPVLISAMKIFVTTKNSKNQGIEEALKNRNFTVEKMSAEINEIIRVLQLTSWDEDAWASKDTEAMKRALASIDSKLNQAKGWLRDPSASPGDAGEQAIRQILDEAGKVGELCAGKERREILGTCKMLGQMTDQVADLRARGQGSSPVAMQKAQQVSQGLDVLTAKVENAARKLEAMTNSKQSIAKKIDAAQNWLADPNGGPEGEEQIRGALAEARKIAELCDDPKERDDILRSLGEISALTSKLADLRRQGKGDSPEARALAKQVATALQNLQTKTNRAVANSRPAKAAVHLEGKIEQAQRWIDNPTVDDRGVGQAAIRGLVAEGHRLANVMMGPYRQDLLAKCDRVDQLTAQLADLAARGEGESPQARALASQLQDSLKDLKARMQEAMTQEVSDVFSDTTTPIKLLAVAATAPPDAPNREEVFDERAANFENHSGKLGATAEKAAAVGTANKSTVEGIQASVKTARELTPQVVSAARILLRNPGNQAAYEHFETMKNQWIDNVEKMTGLVDEAIDTKSLLDASEEAIKKDLDKCKVAMANIQPQMLVAGATSIARRANRILLVAKREVENSEDPKFREAVKAASDELSKTISPMVMDAKAVAGNISDPGLQKSFLDSGYRILGAVAKVREAFQPQEPDFPPPPPDLEQLRLTDELAPPKPPLPEGEVPPPRPPPPEEKDEEFPEQKAGEVINQPMMMAARQLHDEARKWSSKPGIPAAEVGIGVVAEADAADAAGFPVPPDMEDDYEPELLLMPSNQPVNQPILAAAQSLHREATKWSSKGNDIIAAAKRMALLMAEMSRLVRGGSGTKRALIQCAKDIAKASDEVTRLAKEVAKQCTDKRIRTNLLQVCERIPTISTQLKILSTVKATMLGRTNISDEESEQATEMLVHNAQNLMQSVKETVREAEAASIKIRTDAGFTLRWVRKTPWYQ
effect on bacterial migration speeds ([2]; estimated intracellular 0.12 μM (identical to p90)): failed to cause any significant change | effect on Shigella intracellular motility ([2]; needle concentration 2.2 μM, estimated intracellular concentration 0.22 μM): failed to accelerate
